The values that follow come from PubChem BioAssay AID977613 (Broad Institute, 2014).

For the assay, the system named is Broad 7084-01 inhibitor HTS, set 2. The assay is described as follows: single-concentration hits, screen 7084 set 2 (AID 977613).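 Also: host cells are infected with parasite promastigotes that become internalized.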

The source made the active and inactive calls. No rule for the calls is given here. Where only a bound is given, the exact number is not on record here.

As to `CCCN1[C@H](C(=O)NCCCN2CCOCC2)[C@@H](CO)[C@@H]2Cn3c(ccc(-c4ccncc4)c3=O)[C@@H]21`, the active concentration was > 10 µM (inactive).

On to `O=C(C[C@@H]1CC[C@@H]2[C@H](COC[C@@H](O)CN2C(=O)c2ccccc2F)O1)NCc1ccccc1`, for which the active concentration was > 10 µM (inactive).

For the compound `O=C(c1cccc(F)c1)N1CC2(C1)[C@H](c1ccccc1)[C@@H](CO)N2C(=O)C1CCCCC1`, the active concentration is > 10 µM (inactive).

Consider `COc1ccc2c3c([nH]c2c1)[C@H](CO)N(Cc1ccc(F)cc1)CC31CCN(C)CC1`, for which the active concentration was > 10 µM (inactive).

As for `O=S(=O)(c1ccccc1)N1CCCCN2[C@H](CO)[C@H](c3ccc(C#CC4CCCC4)cc3)[C@@H]2C1`, the active concentration is > 10 µM (inactive).

Consider `CCS(=O)(=O)N1CC2(C1)[C@H](c1ccccc1)[C@@H](CO)N2C(=O)c1ccccc1`, for which the active concentration is > 10 µM (inactive).

In the case of `CC(C)NC(=O)Nc1ccc2c(c1)C(=O)N(C)[C@H]1CC[C@@H](CC(=O)NCc3ccc(F)cc3)O[C@H]1CO2`, the active concentration is > 10 µM (inactive).

With `CC(C)NC(=O)N1[C@@H]2CN(C)c3ccccc3[C@@H]2[C@@H]1CO`, the active concentration was > 10 µM (inactive).

As to `CN1[C@@H]2CNc3ccccc3[C@@H]2[C@@H]1CO`, the active concentration is > 10 µM (inactive).

`O=C([C@@H]1[C@@H](CO)[C@@H]2Cn3c(ccc(C4=CCCC4)c3=O)[C@H]1N2C(=O)c1ccncc1)N1CCOCC1`: the active concentration is > 10 µM (inactive).

Take `O=C(c1ccccc1F)N1CC(=O)N2[C@H](CO)[C@@H](c3ccc(C#Cc4ccccc4)cc3)[C@@H]2C1`: the active concentration is > 10 µM (inactive).

For the compound `COC(=O)C[C@@H]1CC[C@@H]2[C@@H](COc3ccc(NS(=O)(=O)c4ccccc4Cl)cc3C(=O)N2C)O1`, the active concentration was > 10 µM (inactive).

`CC(C)NC(=O)N1CC2(C1)[C@H](c1ccccc1)[C@H](CO)N2CCC(F)(F)F`: the active concentration was > 10 µM (inactive).

Turning to `COCC(=O)N1[C@@H](C#N)[C@@H](c2ccccc2-c2cccc(C)c2)[C@@H]1CO`, the active concentration is > 10 µM (inactive).

In the case of `COCC#Cc1ccc([C@@H]2[C@@H](CO)N3C(=O)CN(C(=O)Nc4ccccc4F)C[C@H]23)cc1`, the active concentration was > 10 µM (inactive).

Turning to `Cc1ccccc1S(=O)(=O)N1CC[C@@H]2[C@H]1c1cc(C#Cc3ccccc3)ccc1N[C@@H]2CO`, the active concentration was > 10 µM (inactive).

Turning to `CN1C(=O)c2cc(NC(=O)Nc3ccccc3Cl)ccc2OC[C@H]2O[C@@H](CC(=O)NCCCN3CCOCC3)CC[C@@H]21`, the active concentration is > 10 µM (inactive).

For the compound `COc1cccc(C(=O)Nc2ccc3c(c2)C(=O)N(C)[C@@H]2CC[C@H](CC(=O)NCCCN4CCOCC4)O[C@H]2CO3)c1`, the active concentration is > 10 µM (inactive).

For `CN(C)CC#Cc1ccc([C@H]2[C@H]3CN(C(=O)Nc4ccccc4F)CCCCN3[C@H]2CO)cc1`, the active concentration was > 10 µM (inactive).

In the case of `Cc1cccc(S(=O)(=O)N2C[C@H](O)COC[C@@H]3O[C@@H](CC(=O)Nc4ccccc4)CC[C@H]32)c1`, the active concentration was > 10 µM (inactive).

As to `O=C(C[C@H]1CC[C@@H]2[C@H](COC[C@@H](O)CN2Cc2cc(F)cc(F)c2)O1)NC1CCC1`, the active concentration is > 10 µM (inactive).

Consider `COc1ccc2c3c([nH]c2c1)[C@@H](CO)N(C(=O)C1CCC1)CC31CN(C(=O)c2ccccn2)C1`, for which the active concentration is > 10 µM (inactive).

For the compound `O=C(C[C@@H]1CC[C@@H]2[C@H](COC[C@H](O)CN2C(=O)Nc2cc(Cl)cc(Cl)c2)O1)NCC1CCCCC1`, the active concentration was > 10 µM (inactive).

In the case of `O=C1CNC[C@H]2[C@H](c3ccc(C4=CCCC4)cc3)[C@H](CO)N12`, the active concentration was > 10 µM (inactive).

In the case of `COC(=O)C[C@H]1CC[C@@H]2[C@H](COc3ccc(NS(=O)(=O)c4ccccc4Cl)cc3C(=O)N2C)O1`, the active concentration is > 10 µM (inactive).

On to `CN1C(=O)c2cc(NS(C)(=O)=O)ccc2OC[C@H]2O[C@H](CC(=O)N3CCOCC3)CC[C@@H]21`, for which the active concentration is > 10 µM (inactive).

Consider `COC(=O)[C@@H]1[C@@H](CO)[C@@H]2Cn3c(cccc3=O)[C@@H]2N1CC1CCOCC1`, for which the active concentration was > 10 µM (inactive).

`COc1ccc2c3c(n(C)c2c1)[C@@H](CO)NCC31CCN(Cc2cc(F)ccc2F)CC1`: the active concentration was > 10 µM (inactive).

In the case of `O=C1CN(S(=O)(=O)Cc2ccccc2)C[C@@H]2[C@H](c3ccc(C#Cc4ccccc4)cc3)[C@@H](CO)N12`, the active concentration was > 10 µM (inactive).

With `OC[C@@H]1Nc2ccc(-c3ccccc3)cc2[C@H]2[C@@H]1CCN2Cc1ccccc1F`, the active concentration was > 10 µM (inactive).

As to `COc1ccc(NC(=O)N2CCCCN3[C@@H](CO)[C@H](c4ccc(-c5ccccc5F)cc4)[C@@H]3C2)cc1`, the active concentration is > 10 µM (inactive).

With `N#C[C@H]1[C@@H](c2ccccc2C2=CCCC2)[C@H](CO)N1S(=O)(=O)c1ccccc1`, the active concentration was > 10 µM (inactive).

For the compound `O=S(=O)(c1cccs1)N1CCCCN2[C@@H](CO)[C@@H](c3ccc(/C=C/c4ccccc4)cc3)[C@@H]2C1`, the active concentration is > 10 µM (inactive).

For `O=C(C[C@H]1CC[C@@H]2[C@H](COC[C@H](O)CN2C(=O)C2CC2)O1)NCc1ccncc1`, the active concentration is > 10 µM (inactive).

As to `CCC(=O)N1CC2(C1)[C@@H](c1ccc(-c3cccc(C)c3)cc1)[C@@H](CO)N2S(C)(=O)=O`, the active concentration was > 10 µM (inactive).

Regarding `CCN1CC(=O)N2[C@H](CO)[C@@H](c3ccc(Br)cc3)[C@@H]2C1`, the active concentration was > 10 µM (inactive).

As for `CC(C)NC(=O)Nc1ccc2c(c1)C(=O)N(C)[C@H]1CC[C@H](CC(=O)NCc3ccc(F)cc3)O[C@H]1CO2`, the active concentration was > 10 µM (inactive).

For `OC[C@@H]1[C@H](c2ccc(C3=CCCC3)cc2)[C@H]2CN(Cc3ccncc3)CCCCN12`, the active concentration is > 10 µM (inactive).

Consider `CN1c2ccc(-c3ccc(C#N)cc3)cc2[C@@H]2[C@@H](CCN2C(=O)Nc2cccc(F)c2)[C@@H]1CO`, for which the active concentration was > 10 µM (inactive).

On to `Cc1cccc(S(=O)(=O)N2CC[C@H]3[C@@H](CO)N(C)c4ccc(-c5ccccc5F)cc4[C@H]32)c1`, for which the active concentration was > 10 µM (inactive).

Take `CN1C(=O)c2cc(NS(C)(=O)=O)ccc2OC[C@H]2O[C@@H](CC(=O)NC3CCCCC3)CC[C@H]21`: the active concentration is > 10 µM (inactive).

`Cc1nn(C)cc1NC(=O)C[C@H]1CC[C@H]2[C@@H](COc3ccc(NC(=O)C4CCOCC4)cc3C(=O)N2C)O1`: the active concentration was > 10 µM (inactive).

For `COc1cccc(C(=O)N2C[C@@H]3[C@H](c4ccccc42)[C@H](CO)N3Cc2ccccc2Cl)c1`, the active concentration was > 10 µM (inactive).

With `Cc1ccccc1-c1ccc([C@@H]2[C@@H](CO)N3C(=O)CN(S(C)(=O)=O)C[C@@H]23)cc1`, the active concentration was > 10 µM (inactive).

On to `O=C(C[C@@H]1CC[C@H]2[C@@H](COC[C@H](O)CN2C(=O)Nc2cc(Cl)cc(Cl)c2)O1)NCC1CCCCC1`, for which the active concentration is > 10 µM (inactive).

For `COc1ccccc1C(=O)Nc1ccc2c(c1)C(=O)N(C)[C@H]1CC[C@@H](CC(=O)NCCc3ccncc3)O[C@H]1CO2`, the active concentration is > 10 µM (inactive).

With `COc1ccc2c3c([nH]c2c1)[C@@H](CO)N(C(=O)CN(C)C)CC31CCN(Cc2cncnc2)CC1`, the active concentration is > 10 µM (inactive).

`O=C(Nc1ccc(-c2ccccc2)cc1)[C@@H]1[C@@H](CO)[C@@H]2Cn3c(cccc3=O)[C@H]1N2Cc1ccncc1`: the active concentration is > 10 µM (inactive).

In the case of `CN1C[C@@H]2[C@H](c3ccccc31)[C@@H](CO)N2C(=O)Nc1cccc(F)c1`, the active concentration was > 10 µM (inactive).

As for `CCNC(=O)Nc1ccc2c(c1)C(=O)N(C)[C@@H]1CC[C@@H](CC(=O)N[C@H](C)c3ccccc3)O[C@H]1CO2`, the active concentration is > 10 µM (inactive).

Turning to `O=C(C1CCCCC1)N1CC(=O)N2[C@H](CO)[C@@H](c3ccc(-c4ccccc4F)cc3)[C@@H]2C1`, the active concentration was > 10 µM (inactive).

On to `CC(=O)N1CC[C@@H]2[C@H](CO)Nc3ccc(C#Cc4cccnc4)cc3[C@@H]21`, for which the active concentration is > 10 µM (inactive).

For the compound `CC(C)C#Cc1ccc([C@@H]2[C@@H](CO)N3C(=O)CN(C(=O)Cc4ccccc4)C[C@H]23)cc1`, the active concentration was > 10 µM (inactive).

Consider `N#C[C@H]1[C@@H](c2ccccc2C2=CCCCC2)[C@H](CO)N1C(=O)C1CCOCC1`, for which the active concentration is > 10 µM (inactive).

In the case of `COc1ccccc1-c1ccc([C@@H]2[C@@H](CO)N(CC3CC3)C23CN(S(C)(=O)=O)C3)cc1`, the active concentration is > 10 µM (inactive).

Consider `C/C=C/c1ccccc1[C@@H]1[C@@H](CO)N(C(=O)Cc2ccccn2)[C@H]1C#N`, for which the active concentration was > 10 µM (inactive).

As for `CCCNC(=O)N1CC(=O)N2[C@H](C1)[C@@H](c1ccc(-c3ccc(F)cc3)cc1)[C@@H]2CO`, the active concentration was > 10 µM (inactive).

As to `CCNC(=O)C[C@H]1CC[C@@H]2[C@H](COC[C@@H](O)CN2C(=O)C2CC2)O1`, the active concentration is > 10 µM (inactive).

Consider `CCC(=O)N1CC(=O)N2[C@H](CO)[C@@H](c3ccc(-c4ccc(C#N)cc4)cc3)[C@@H]2C1`, for which the active concentration was > 10 µM (inactive).

Take `CCNC(=O)Nc1ccc2c(c1)C(=O)N(C)[C@H]1CC[C@@H](CC(=O)N[C@H](C)c3ccccc3)O[C@H]1CO2`: the active concentration was > 10 µM (inactive).

For `CN1C[C@H](O)COC[C@H]2O[C@H](CC(=O)NC3CCCC3)CC[C@@H]21`, the active concentration was > 10 µM (inactive).

`COc1ccccc1NC(=O)N1CC(=O)N2[C@H](CO)[C@H](c3ccc(-c4cccc(C)c4)cc3)[C@@H]2C1`: the active concentration is > 10 µM (inactive).

Regarding `O=C(O)[C@H]1[C@H](CO)[C@H]2Cn3c(ccc(-c4cncnc4)c3=O)[C@H]2N1C(=O)C1CCCCC1`, the active concentration was > 10 µM (inactive).

For the compound `Cc1ccc(-c2ccccc2[C@@H]2[C@H](C#N)N(C(=O)c3cccc(F)c3)[C@H]2CO)cc1`, the active concentration was > 10 µM (inactive).
